# Tests used:
# [1] = test system: recombinant human anti-SARS-CoV antibody 03-018; assay type: binding; set-up: Binding of antibody 03-018 to linear peptides of the N protein of SARS-CoV Urbani / Binding of antibody 03-018 to looped/cyclic peptides of the N protein of SARS-CoV Urbani: unit not given here
# [2] = test system: rabbit serum obtained by immunizing a rabbit with the SARS-CoV strain Frankfurt 1; assay type: binding; set-up: Binding of a rabbit serum to linear peptides / Binding of a rabbit serum to looped peptides / Rabbit serum linear peptides / Rabbit serum looped peptides / Binding of a rabbit serum to linear peptides of protein N of SARS-CoV Urbani (Rabbit serum linear peptides) / Binding of a rabbit serum to looped/cyclic peptides of protein N of SARS-CoV Urbani (Rabbit serum looped peptides): unit not given here
# [3] = test system: antibodies in sera from SARS patients (sera 1a, 1b, 2, 6, 37, 62, London, SARS-yellow, SARS-green); assay type: binding, human; set-up: Binding of serum 6 to linear peptides of protein X1 of SARS-CoV Urbani / Binding of serum 37 to linear peptides of protein X1 of SARS-CoV Urbani / Binding of serum 6 to looped/cyclic peptide (PEPSCAN-ELISA) / Binding of serum 37 to looped/cyclic peptide (PEPSCAN-ELISA) / Binding of serum 37 to looped/cyclic peptides of protein X1 of SARS-CoV Urbani / Binding of serum 6 to linear peptides of protein X2 / Binding of serum 37 to linear peptides of protein X2 / Binding of serum 37 to looped/cyclic peptides of protein X2 of SARS-CoV Urbani / Binding of serum 6 to linear peptides of protein M of SARS-CoV Urbani / Binding of serum 37 to linear peptides of protein M of SARS-CoV Urbani / Binding of serum 6 to looped/cyclic peptides of protein M of SARS-CoV Urbani / Binding of serum 37 to looped/cyclic peptides of protein M of SARS-CoV Urbani / Binding of serum 6 to linear peptides of protein X3 of SARS-CoV Urbani / Binding of serum 37 to linear peptides of protein X3 of SARS-CoV Urbani / Binding of serum 37 to looped/cyclic peptides of protein X3 of SARS-CoV Urbani / Binding of serum 6 to linear peptides of protein X4 of SARS-CoV Urbani / Binding of serum 37 to linear peptides of protein X4 of SARS-CoV Urbani / Binding of serum 37 to looped/cyclic peptides of protein X4 of SARS-CoV Urbani / Binding of serum 6 to linear peptides of protein X5 of SARS-CoV Urbani / Binding of serum 37 to linear peptides of protein X5 of SARS-CoV Urbani / Binding of serum 37 to looped/cyclic peptides of protein X5 of SARS-CoV Urbani / Binding of serum 6 to linear peptides of protein N of SARS-CoV Urbani / Binding of serum 37 to linear peptides of protein N of SARS-CoV Urbani / Binding of serum 6 to linear peptide (PEPSCAN-ELISA) / Binding of serum 1a to looped/cyclic peptides of protein N of SARS-CoV Urbani / Binding of serum 1b to looped/cyclic peptides of protein N of SARS-CoV Urbani / Binding of serum 2 to looped/cyclic peptides of protein N of SARS-CoV Urbani / Binding of serum 6 to looped/cyclic peptides of protein N of SARS-CoV Urbani / Binding of serum 37 to looped/cyclic peptides of protein N of SARS-CoV Urbani / Binding of serum 62 to looped/cyclic peptides of protein N of SARS-CoV Urbani / Binding of serum London to looped/cyclic peptides of protein N of SARS-CoV Urbani / Binding of serum SARS-green to looped/cyclic peptides of protein N of SARS-CoV Urbani: unit not given here
# [4] = test system: control sera (pooled serum of ten healthy LUMC hospital workers; commercial negative donor pooled serum from the Dutch bloodbank); assay type: binding, human; set-up: Binding of Control serum LUMC to linear peptides / Binding of Control serum Blood-bank to linear peptides / Binding of Control serum LUMC to looped peptides / Binding of Control Serum Blood-Bank to Looped peptides / Binding of Control serum LUMC to linear peptides of the protein M of SARS-CoV Urbani / Binding of Control serum Blood-bank to linear peptides of the protein M of SARS-CoV Urbani / Binding of Control serum LUMC to looped peptides of the protein M of SARS-CoV Urbani / Binding of Control Serum Blood-Bank to Looped peptides of the protein M of SARS-CoV Urbani: unit not given here
Sequence,Binding of antibody 03-018 to linear peptides of the N protein of SARS-CoV Urbani [1],Binding of antibody 03-018 to looped/cyclic peptides of the N protein of SARS-CoV Urbani [1],Binding of a rabbit serum to linear peptides of protein N of SARS-CoV Urbani (Rabbit serum linear peptides) [2],Binding of a rabbit serum to looped/cyclic peptides of protein N of SARS-CoV Urbani (Rabbit serum looped peptides) [2],Binding of serum 1a to linear peptides of protein N of SARS-CoV Urbani [3],Binding of serum 1a to looped/cyclic peptides of protein N of SARS-CoV Urbani [3],Binding of serum 1b to linear peptides of protein N of SARS-CoV Urbani [3],Binding of serum 1b to looped/cyclic peptides of protein N of SARS-CoV Urbani [3],Binding of serum 2 to linear peptides of protein N of SARS-CoV Urbani [3],Binding of serum 2 to looped/cyclic peptides of protein N of SARS-CoV Urbani [3],Binding of serum 6 to linear peptides of protein N of SARS-CoV Urbani [3],Binding of serum 6 to looped/cyclic peptides of protein N of SARS-CoV Urbani [3],Binding of serum 37 to linear peptides of protein N of SARS-CoV Urbani [3],Binding of serum 37 to looped/cyclic peptides of protein N of SARS-CoV Urbani [3],Binding of serum 62 to linear peptides of protein N of SARS-CoV Urbani [3],Binding of serum 62 to looped/cyclic peptides of protein N of SARS-CoV Urbani [3],Binding of serum London to linear peptides of protein N of SARS-CoV Urbani [3],Binding of serum London to looped/cyclic peptides of protein N of SARS-CoV Urbani [3],Binding of serum SARS-green to linear peptides of protein N of SARS-CoV Urbani [3],Binding of serum SARS-green to looped/cyclic peptides of protein N of SARS-CoV Urbani [3],also measured
MEVTPSGTWLTYHGA,0.1,0.2,0.1,0.4,0.3,0.4,0.1,0.3,0.1,0.5,0.2,0.3,0.6,0.7,0.5,0.8,0.5,0.5,0.2,0.5,Binding of serum SARS-yellow to linear peptides of protein N of SARS-CoV Urbani [3]: 0.7; Binding of serum SARS-yellow to looped/cyclic peptides of protein N of SARS-CoV Urbani [3]: 0.4; Control Serum Blood-Bank Looped peptides [4]: 0.7; Control serum Blood-bank linear peptides [4]: 0.8; Control serum LUMC linear peptides [4]: 0.6; Control serum LUMC looped peptides [4]: 0.8
MKELSPRWYFYYLGT,0.1,0.2,0.1,0.4,0.2,0.4,0.1,0.2,0.1,0.4,0.1,0.2,0.5,0.7,0.4,0.6,0.4,0.4,0.2,0.4,Binding of serum SARS-yellow to linear peptides of protein N of SARS-CoV Urbani [3]: 0.6; Binding of serum SARS-yellow to looped/cyclic peptides of protein N of SARS-CoV Urbani [3]: 0.4; Binding of Control Serum Blood-Bank to Looped peptides [4]: 0.7; Binding of Control serum Blood-bank to linear peptides [4]: 0.7; Binding of Control serum LUMC to linear peptides [4]: 0.6; Binding of Control serum LUMC to looped peptides [4]: 0.6
MSDNGPQSNQRSAPR,0.1,0.3,0.1,0.4,0.2,0.2,0.1,0.1,0.2,0.4,0.2,0.3,0.6,0.4,0.6,0.4,0.5,0.4,0.3,0.4,Binding of serum SARS-yellow to linear peptides of protein N of SARS-CoV Urbani [3]: 0.5; Binding of serum SARS-yellow to looped/cyclic peptides of protein N of SARS-CoV Urbani [3]: 0.1; Binding of Control Serum Blood-Bank to Looped peptides [4]: 0.6; Binding of Control serum Blood-bank to linear peptides [4]: 0.6; Binding of Control serum LUMC to linear peptides [4]: 0.5; Binding of Control serum LUMC to looped peptides [4]: 0.5
MSRIGMEVTPSGTWL,0.1,0.2,0.2,0.5,0.3,0.4,0.1,0.3,0.2,0.5,0.2,0.3,0.6,0.6,0.7,0.7,0.5,0.5,0.3,0.7,Binding of serum SARS-yellow to linear peptides of protein N of SARS-CoV Urbani [3]: 0.6; Binding of serum SARS-yellow to looped/cyclic peptides of protein N of SARS-CoV Urbani [3]: 0.5; Control Serum Blood-Bank Looped peptides [4]: 0.7; Control serum Blood-bank linear peptides [4]: 0.8; Control serum LUMC linear peptides [4]: 0.7; Control serum LUMC looped peptides [4]: 0.7
